From US20260364184A1, “COMPOUND BASED ON OXOISOINDOLINYL-SUBSTITUTED TETRAHYDROPYRIMIDINE-DIONE AND USE THEREOF” (GLUETACS THERAPEUTICS (SHANGHAI) CO., LTD., priority 2023, published 2026)
Where two headings read alike, the source gives them in different places.

Assays:
FAK = molecular target: T1, FAK (Homo sapiens, UniProt Q05397); test: Western blot degradation of FAK; type: cell-based; details: A549 Cell; 24 hours
T1 construct: expression of target proteins in cells; endogenous in cells
Protocol: (§1) Conventional Western blot assay was performed to evaluate the effects of the compounds of the present disclosure on the expression of target proteins in cells.
(§2) (1) Cell Seeding and Protein Harvesting: The selected cells were processed according to the cell seeding procedure and protein harvesting procedure in Table II-2.
(§3) (2) To the collected supernatant, 5×SDS sample loading buffer was added, followed by denaturation at 95 °C for 5 minutes. The denatured samples were then separated by SDS-PAGE electrophoresis on a polyacrylamide gel. Proteins were transferred to a nitrocellulose membrane (0.45 μm NC membrane), blocked with blocking buffer at room temperature for 1 hour, and subjected to antibody incubation and development procedures according to the antibody manufacturer's instructions (Cell Signaling Technology).
(§4) Half-Maximal Degradation Concentration value (the drug concentration required for degrading proteins by 50%, abbreviated as DC50) reads method: comparing the grayscale values of Western blot bands from drug-treated samples with those from blank DMSO-treated controls, and identifying the drug concentration range at which the grayscale value is half that of the DMSO-treated control bands.
(§5) DC50 values can be calculated using ImageJ software to measure grayscale values of Western blot bands from drug-treated samples. The concentration-response curve is fitted to estimate the drug concentration corresponding to half the grayscale value.
(§6) Target protein remaining (%) refers to the percentage of target protein remaining in cells after treatment with protein degrader compounds.
(§7) Calculation method for target protein remaining (%): Use ImageJ software to measure grayscale values of Western blot bands from drug (protein degrader)-treated samples. The grayscale value of drug-treated bands is divided by that of internal control protein bands, and the resulting quotient is normalized to obtain the relative percentage of remaining target protein after protein degrader treatment.
(§8) Target protein degradation rate (%)=1−target protein remaining (%).

[1] = system: Human Multiple myeloma cell line (MM.1S); test: Inhibition of MM.1S cell proliferation (CellTiter luminescent viability); type: cell-based; details: Homo sapiens, MM1.S, 96 hours; for inhibition at 0.01 µM: 10 nM, read-out: Inhibition Rate at 10 nM (%); for inhibition at 0.5 µM: 500 nM, read-out: Inhibition Rate at 500 nM (%)
Procedure, shortened: (§9)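 IC50 is fitted from luminescent viability (CellTiter-Meiluncell) curves. Nine-point, 5-fold dilution series (top stock 2000 μM) are added at 0.5 μL per 100 μL medium to cells plated the day before, with growth at 37 °C and 5% CO2.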

[2] = system: Human acute lymphocytic leukemia T lymphocytes cell line (CCRF-CEM); test: Inhibition of CCRF-CEM cell proliferation (CellTiter luminescent viability); type: cell-based; details: Homo sapiens, 96 h, Table IL3, BCR-ABL inhibitor-based; for inhibition at 0.01 µM: 10 nM, read-out: Inhibition Rate at 10 nM (%); for inhibition at 0.5 µM: 500 nM, read-out: Inhibition Rate at 500 nM (%)
C-ABL = molecular target: T2, C-ABL (Homo sapiens, UniProt P00519); test: Western blot degradation of C-ABL; type: cell-based; details: K562 Cell; 24 hours
T2 construct: K562 also holds p210 BCR-ABL (BCR P11274 fused to ABL1)
Protocol: as §1, §2, §3, §4, §5, §6, §7, §8

[3] = system: Human myeloid monocytic leukemia cell line (MV-4-11); test: Inhibition of MV-4-11 cell proliferation (CellTiter luminescent viability); type: cell-based; details: Homo sapiens, MV4-11, 96 hours; for inhibition at 0.01 µM: MV-4-11, 10 nM, read-out: Inhibition Rate at 10 nM (%); for inhibition at 0.5 µM: MV-4-11, 500 nM, read-out: Inhibition Rate at 500 nM (%)
Procedure, shortened: as §9

[4] = molecular target: T3, human Cereblon WT GST-tagged protein (CRBN) (Homo sapiens, UniProt Q96SW2); test: CRBN binding by HTRF (Cereblon binding kit)
T3 construct: purchased CISBIO 64BDCRBNPEH
Procedure, shortened: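 GST-tagged human Cereblon WT was incubated 3 h at room temperature with compound, thalidomide-Re tracer and Eu anti-GST antibody. Final compound concentrations were 10 to 0.00064 µM (7 points) or 2 and 0.5 µM. Inhibition rate was calculated from HTRF 665/620 nm ratios versus solvent and blank controls.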

[5] = Table IL1, BCR-ABL inhibitor-based
[6] = Table IL2, BCR-ABL inhibitor-based

T2 sequence (P00519 whole entry, the tested form may be a part): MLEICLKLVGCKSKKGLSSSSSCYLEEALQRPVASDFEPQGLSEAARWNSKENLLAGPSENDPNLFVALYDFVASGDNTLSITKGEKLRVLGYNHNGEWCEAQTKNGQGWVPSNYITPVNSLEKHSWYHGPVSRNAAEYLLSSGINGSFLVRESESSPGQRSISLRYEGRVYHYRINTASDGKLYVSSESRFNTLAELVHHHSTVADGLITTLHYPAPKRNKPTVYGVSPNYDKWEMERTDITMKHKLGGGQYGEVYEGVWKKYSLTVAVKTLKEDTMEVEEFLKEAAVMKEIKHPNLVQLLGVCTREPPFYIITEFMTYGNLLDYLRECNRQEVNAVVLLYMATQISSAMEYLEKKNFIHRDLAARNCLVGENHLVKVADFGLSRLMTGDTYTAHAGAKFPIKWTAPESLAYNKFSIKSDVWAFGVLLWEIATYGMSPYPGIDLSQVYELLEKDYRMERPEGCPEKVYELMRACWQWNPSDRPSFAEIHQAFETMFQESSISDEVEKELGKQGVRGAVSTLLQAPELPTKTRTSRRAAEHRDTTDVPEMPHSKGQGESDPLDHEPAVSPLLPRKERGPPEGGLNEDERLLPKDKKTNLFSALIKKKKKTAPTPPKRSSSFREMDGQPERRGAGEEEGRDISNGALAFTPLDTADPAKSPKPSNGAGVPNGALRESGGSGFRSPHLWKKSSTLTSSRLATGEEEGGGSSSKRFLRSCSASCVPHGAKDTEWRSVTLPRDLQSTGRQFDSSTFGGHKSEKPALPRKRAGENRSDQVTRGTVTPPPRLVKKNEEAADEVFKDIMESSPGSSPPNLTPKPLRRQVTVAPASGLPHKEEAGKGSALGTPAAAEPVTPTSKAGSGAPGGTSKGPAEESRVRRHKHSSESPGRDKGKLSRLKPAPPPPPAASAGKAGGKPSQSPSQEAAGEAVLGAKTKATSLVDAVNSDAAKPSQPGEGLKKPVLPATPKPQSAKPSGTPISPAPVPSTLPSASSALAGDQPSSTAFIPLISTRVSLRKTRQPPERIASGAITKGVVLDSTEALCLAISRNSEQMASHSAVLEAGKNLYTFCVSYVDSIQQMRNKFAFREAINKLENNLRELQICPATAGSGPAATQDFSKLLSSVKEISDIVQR
T2 sequence (Q96SW2 whole entry partner, the tested form may be a part): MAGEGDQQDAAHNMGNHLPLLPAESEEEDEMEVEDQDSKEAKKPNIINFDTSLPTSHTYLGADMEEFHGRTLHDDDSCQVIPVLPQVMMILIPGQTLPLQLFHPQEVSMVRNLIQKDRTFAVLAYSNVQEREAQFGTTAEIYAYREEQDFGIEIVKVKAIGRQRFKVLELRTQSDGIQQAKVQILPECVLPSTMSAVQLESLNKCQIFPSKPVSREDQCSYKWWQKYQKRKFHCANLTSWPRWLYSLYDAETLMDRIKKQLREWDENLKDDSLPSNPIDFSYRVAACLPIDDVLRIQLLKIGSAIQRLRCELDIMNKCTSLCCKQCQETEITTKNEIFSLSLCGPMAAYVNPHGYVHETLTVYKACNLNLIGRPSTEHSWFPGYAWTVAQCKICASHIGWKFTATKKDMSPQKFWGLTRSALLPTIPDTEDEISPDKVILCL
T1 sequence (Q05397 whole entry): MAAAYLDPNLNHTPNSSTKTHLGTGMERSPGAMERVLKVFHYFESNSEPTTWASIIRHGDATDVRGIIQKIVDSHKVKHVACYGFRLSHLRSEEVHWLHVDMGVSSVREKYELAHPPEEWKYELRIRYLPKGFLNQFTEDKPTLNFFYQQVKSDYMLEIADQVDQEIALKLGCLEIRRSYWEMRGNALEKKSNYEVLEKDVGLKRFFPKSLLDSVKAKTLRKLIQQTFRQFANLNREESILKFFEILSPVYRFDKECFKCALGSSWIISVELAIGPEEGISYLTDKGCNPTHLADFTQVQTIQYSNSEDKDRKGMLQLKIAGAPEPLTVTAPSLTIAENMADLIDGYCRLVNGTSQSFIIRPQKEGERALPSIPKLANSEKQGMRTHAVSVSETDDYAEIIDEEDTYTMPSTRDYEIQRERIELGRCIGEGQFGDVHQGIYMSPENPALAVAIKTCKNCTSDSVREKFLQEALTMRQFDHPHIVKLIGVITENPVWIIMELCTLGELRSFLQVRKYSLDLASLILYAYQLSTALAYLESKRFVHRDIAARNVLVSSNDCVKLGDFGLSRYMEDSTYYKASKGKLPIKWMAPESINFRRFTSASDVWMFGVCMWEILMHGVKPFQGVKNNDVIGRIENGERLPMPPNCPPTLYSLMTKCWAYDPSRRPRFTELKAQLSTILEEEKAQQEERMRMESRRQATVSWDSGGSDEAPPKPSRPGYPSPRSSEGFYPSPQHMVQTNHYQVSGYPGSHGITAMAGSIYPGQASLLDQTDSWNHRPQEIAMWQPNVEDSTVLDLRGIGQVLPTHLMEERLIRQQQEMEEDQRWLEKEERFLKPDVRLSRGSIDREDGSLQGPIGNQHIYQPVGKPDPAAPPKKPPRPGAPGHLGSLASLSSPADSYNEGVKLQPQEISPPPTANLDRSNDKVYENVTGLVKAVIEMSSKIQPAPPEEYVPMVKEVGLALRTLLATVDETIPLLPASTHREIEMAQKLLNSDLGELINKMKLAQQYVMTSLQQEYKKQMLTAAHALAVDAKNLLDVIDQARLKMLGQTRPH
T3 sequence (Q96SW2 whole entry): as the sequence (Q96SW2 whole entry partner, the tested form may be a part) above

| SMILES | Degradation of substrate protein FAK (substrate protein remaining %) (FAK) | Degradation of substrate protein C-ABL; BCR-ABL (substrate protein remaining %) (C-ABL) | inhibition at 0.01 µM [1, 5] | inhibition at 0.5 µM [1, 5] | inhibition at 0.01 µM [2] | inhibition at 0.5 µM [2] | other results |
| --- | --- | --- | --- | --- | --- | --- | --- |
| CNC(=O)c1ccccc1Nc1cc(Nc2cc(C)c(C3CCN(CC4CCN(c5cccc6c5C(=O)N(N5CCC(=O)NC5=O)C6=O)CC4)CC3)cc2OC(C)C)ncc1C(F)(F)F [GT-07666, 2-((2-((4-(1-((1-(2-(2,4-dioxotetrahydropyrimidin-1(2H)-yl)-1,3-dioxoisoindolin-4-yl)piperidin-4-yl)methyl)piperidin-4-yl)-2-isopropoxy-5-methylphenyl)amino)-5-(trifluoromethyl)pyridin-4-yl)amino)-N-methylbenzamide] | A (0%≤substrate protein remaining %≤80%) | – | – | – | – | – | – |
| CNC(=O)c1ccccc1Nc1cc(Nc2cc(C)c(C3CCN(CC4CCN(c5ccc6c(c5)C(=O)N(N5CCC(=O)NC5=O)C6=O)CC4)CC3)cc2OC(C)C)ncc1C(F)(F)F [GT-07665, 2-((2-((4-(1-((1-(2-(2,4-dioxotetrahydropyrimidin-1(2H)-yl)-1,3-dioxoisoindolin-5-yl)piperidin-4-yl)methyl)piperidin-4-yl)-2-isopropoxy-5-methylphenyl)amino)-5-(trifluoromethyl)pyridin-4-yl)amino)-N-methylbenzamide] | A (0%≤substrate protein remaining %≤80%) | – | – | – | – | – | – |
| CNC(=O)c1ccccc1Nc1cc(Nc2ccc(N3CCN(Cc4ccc5c(c4)C(=O)N(N4CCC(=O)NC4=O)C5=O)CC3)cc2OC)ncc1C(F)(F)F [GT-07661, 2-((2-((4-(4-((2-(2,4-dioxotetrahydropyrimidin-1(2H)-yl)-1,3-dioxoisoindolin-5-yl)methyl)piperazin-1-yl)-2-methoxyphenyl)amino)-5-(trifluoromethyl)pyridin-4-yl)amino)-N-methylbenzamide] | A (0%≤substrate protein remaining %≤80%) | – | – | – | – | – | inhibition at 0.01 µM ([1]; Table IG1, FAK inhibitor-based): 30 to 40%; inhibition at 0.5 µM ([1]; Table IG1, FAK inhibitor-based): 40 to 60% |
| Cc1ccc(C(=O)Nc2ccc(CN3CCN(Cc4ccc5c(c4)CN(N4CCC(=O)NC4=O)C5=O)CC3)c(C(F)(F)F)c2)cc1C#Cc1cnc2cccnn12 [GT-08216, N-(4-((4-((2-(2,4-dioxotetrahydropyrimidin-1(2H)-yl)-1-oxoisoindolin-5-yl)methyl)piperazin-1-yl)methyl)-3-(trifluoromethyl)phenyl)-3-(imidazo[1,2-b]pyridazin-3-ylethynyl)-4-methylbenzamide] | – | A (0%≤substrate protein remaining %≤80%) | 20 to 30% | 80 to 100% | 20 to 30% | 80 to 100% | inhibition at 0.01 µM [3, 6]: 80 to 100%; inhibition at 0.5 µM [3, 6]: 80 to 100% |
| O=C1CCN(N2C(=O)c3ccc(N4CCC(CN5CCN(C6CCN(c7ncc(C(=O)Nc8ccc(OC(F)(F)Cl)cc8)cc7-c7cc[nH]n7)CC6)CC5)CC4)cc3C2=O)C(=O)N1 [GT-08360, N-(4-(chlorodifluoromethoxy)phenyl)-6-(4-(4-((1-(2-(2,4-dioxotetrahydropyrimidin-1(2H)-yl)-1,3-dioxoisoindolin-5-yl)piperidin-4-yl)methyl)piperazin-1-yl)piperidin-1-yl)-5-(1H-pyrazol-3-yl)nicotinamide] | – | A (0%≤substrate protein remaining %≤80%) | 5 to 10% | 20 to 30% | 20 to 30% | 30 to 40% | – |

More lines, main results first:

| Degradation of substrate protein FAK (substrate protein remaining %) (FAK) | Degradation of substrate protein C-ABL; BCR-ABL (substrate protein remaining %) (C-ABL) | SMILES | inhibition at 0.01 µM [1, 5] | inhibition at 0.5 µM [1, 5] | inhibition at 0.01 µM [2] | inhibition at 0.5 µM [2] | other results |
| --- | --- | --- | --- | --- | --- | --- | --- |
| A (0%≤substrate protein remaining %≤80%) | – | CS(=O)(=O)c1cccc(CNc2nc(Nc3ccc(N4CCN(CC5CCN(c6ccc7c(c6)C(=O)N(N6CCC(=O)NC6=O)C7=O)CC5)CC4)cc3)ncc2C(F)(F)F)c1 [GT-07470, 2-(2,4-dioxotetrahydropyrimidin-1(2H)-yl)-5-(4-((4-(4-((4-((3-(methylsulfonyl)benzyl)amino)-5-(trifluoromethyl)pyrimidin-2-yl)amino)phenyl)piperazin-1-yl)methyl)piperidin-1-yl)isoindoline-1,3-dione] | – | – | – | – | – |
| A (0%≤substrate protein remaining %≤80%) | – | CS(=O)(=O)c1cccc(CNc2nc(Nc3ccc(N4CCN(CC5CCN(c6cccc7c6C(=O)N(N6CCC(=O)NC6=O)C7=O)CC5)CC4)cc3)ncc2C(F)(F)F)c1 [GT-07471, 2-(2,4-dioxotetrahydropyrimidin-1(2H)-yl)-4-(4-((4-(4-((4-((3-(methylsulfonyl)benzyl)amino)-5-(trifluoromethyl)pyrimidin-2-yl)amino)phenyl)piperazin-1-yl)methyl)piperidin-1-yl)isoindoline-1,3-dione] | – | – | – | – | – |
| – | A (0%≤substrate protein remaining %≤80%) | O=C1CCN(N2C(=O)c3cccc(N4CCC(CN5CCC(N6CCN(c7ncc(C(=O)Nc8ccc(OC(F)(F)Cl)cc8)cc7-c7cc[nH]n7)CC6)CC5)CC4)c3C2=O)C(=O)N1 [GT-08359, N-(4-(chlorodifluoromethoxy)phenyl)-6-(4-(1-((1-(2-(2,4-dioxotetrahydropyrimidin-1(2H)-yl)-1,3-dioxoisoindolin-4-yl)piperidin-4-yl)methyl)piperidin-4-yl)piperazin-1-yl)-5-(1H-pyrazol-3-yl)nicotinamide] | 10 to 15% | 30 to 40% | 15 to 20% | 20 to 30% | – |
| A (0%≤substrate protein remaining %≤80%) | – | CS(=O)(=O)c1cccc(CNc2nc(Nc3ccc(N4CCN(Cc5ccc6c(c5)CN(N5CCC(=O)NC5=O)C6=O)CC4)cc3)ncc2C(F)(F)F)c1 [GT-07514, 1-(5-((4-(4-((4-((3-(methylsulfonyl)benzyl)amino)-5-(trifluoromethyl)pyrimidin-2-yl)amino)phenyl)piperazin-1-yl)methyl)-1-oxoisoindolin-2-yl)dihydropyrimidine-2,4 (1H,3H)-dione] | – | – | – | – | inhibition at 0.01 µM ([3]; Table IG2, FAK inhibitor-based): 30 to 40%; inhibition at 0.5 µM ([3]; Table IG2, FAK inhibitor-based): 80 to 100%; Inhibition Rate at 0.5 μM (%) ([4]; 0.5 μM): a3 (30% < a3 ≤ 40%); Inhibition Rate at 2 μM (%) ([4]; 2 μM): a5 (53% < a5 ≤ 60%) |
